Target: T1, full-length SgmT (His6-SgmT) (Myxococcus xanthus, UniProt Q1D3G7)
T1 sequence (Q1D3G7 1-836): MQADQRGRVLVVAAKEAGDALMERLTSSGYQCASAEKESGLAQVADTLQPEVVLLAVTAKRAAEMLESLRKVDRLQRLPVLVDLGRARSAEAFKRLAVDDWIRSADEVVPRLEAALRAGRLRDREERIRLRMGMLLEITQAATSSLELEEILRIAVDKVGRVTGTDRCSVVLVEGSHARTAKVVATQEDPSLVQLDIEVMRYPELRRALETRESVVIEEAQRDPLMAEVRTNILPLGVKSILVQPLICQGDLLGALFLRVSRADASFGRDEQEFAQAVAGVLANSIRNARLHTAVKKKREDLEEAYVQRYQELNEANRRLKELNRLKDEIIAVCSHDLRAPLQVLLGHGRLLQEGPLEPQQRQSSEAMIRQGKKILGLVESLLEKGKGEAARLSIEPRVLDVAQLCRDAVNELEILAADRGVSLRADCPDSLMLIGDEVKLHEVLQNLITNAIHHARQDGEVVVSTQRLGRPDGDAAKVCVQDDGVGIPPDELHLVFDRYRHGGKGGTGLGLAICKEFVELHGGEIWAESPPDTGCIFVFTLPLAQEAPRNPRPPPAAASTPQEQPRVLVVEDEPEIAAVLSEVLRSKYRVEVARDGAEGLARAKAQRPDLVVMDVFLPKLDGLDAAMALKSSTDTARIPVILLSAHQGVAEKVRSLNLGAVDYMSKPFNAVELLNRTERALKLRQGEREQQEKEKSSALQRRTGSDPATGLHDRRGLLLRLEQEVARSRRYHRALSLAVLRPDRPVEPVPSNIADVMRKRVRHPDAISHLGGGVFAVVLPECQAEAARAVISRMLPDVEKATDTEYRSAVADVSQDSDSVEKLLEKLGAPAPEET
Conditions: labelled compound; 1.0 mM ATP, 10 mM MgCl2, Tris pH 8.0, 30°C, 30 min

Nc1ncnc2c1ncn2[C@@H]1O[C@H](COP(=O)(O)OP(=O)(O)OP(=O)(O)O)[C@@H](O)[C@H]1O [[γ-^32P]-ATP]
autophosphorylation, SDS-PAGE and phosphorimaging: Autophosphorylation of full-length SgmT and phosphotransfer to DigR
